Data reported in ChEMBL document CHEMBL3232942, “Benzophenone C-glucosides and gallotannins from mango tree stem bark with broad-spectrum anti-viral activity” (Bioorg Med Chem, 2014).
Active and inactive are the calls of the source. The calls are words filed in the database; no cut-off is given here.

Columns and labels:
[1] = biological target: Genome polyprotein (Coxsackievirus B3 (strain Nancy)) (UniProt P03313); assay: Inhibition of His-6-tagged Coxsackievirus B3 3C protease expressed in Escherichia coli BL21(DE3) using Asp-Glu-EDANS-(5-((2-aminoethyl)amino)naphthalene-1-sulfonic acid)-MSAIFQGPISK-DABCYL (4-((4-(dimethylamino)phenyl)azo)benzoic acid) as peptide substrate at 100 uM by fluorescence-based […] assay
[2] = biological target: Neuraminidase (Influenza A virus, UniProt Q194T1); assay: Inhibition of Influenza A virus (A/RI/5+/1957(H2N2)) recombinant neuraminidase using MUNANA as substrate after 30 mins
[3] = biological target: Genome polyprotein (Coxsackievirus B3 (strain Nancy), UniProt P03313); assay: Inhibition of His-6-tagged Coxsackievirus B3 3C protease expressed in Escherichia coli BL21(DE3) using Asp-Glu-EDANS-(5-((2-aminoethyl)amino)naphthalene-1-sulfonic acid)-MSAIFQGPISK-DABCYL (4-((4-(dimethylamino)phenyl)azo)benzoic acid) as peptide substrate by fluorescence-based […] assay
[4] = tested on: HepG2; assay: Cytotoxicity against human HepG2 cells assessed as cell viability after 48 hrs by MTT assay; format: cell-based; conditions: HepG2, 48 h
[5] = tested on: HeLa; assay: Cytotoxicity against human HeLa cells assessed as cell viability after 48 hrs by MTT assay; format: cell-based

O=C(OC(=O)c1ccc(O)c(O)c1)c1ccc(O)c(O)c1
inhibition [1]: inactive

COc1cc(O)c(C(=O)c2ccc(O)cc2)c(O)c1[C@@H]1O[C@H](CO)[C@@H](O)[C@H](O)[C@H]1OC(=O)c1cc(O)c(O)c(O)c1
inhibition [1]: 53.8%

CO[C@@H]([C@@H]1OC(C(=O)O)=C[C@H](NC(=N)N)[C@H]1NC(C)=O)[C@H](O)CO
IC50 [2]: 3.1 µM

COc1cc(O)c(C(=O)c2ccc(O)cc2)c(O)c1[C@@H]1O[C@H](CO)[C@@H](O)[C@H](O)[C@H]1OC(=O)c1ccc(O)cc1
inhibition [1]: 27.2%

O=C(OC[C@H]1O[C@@H](O)[C@H](OC(=O)c2cc(O)c(O)c(O)c2)[C@@H](OC(=O)c2cc(O)c(O)c(O)c2)[C@@H]1OC(=O)c1cc(O)c(O)c(O)c1)c1cc(O)c(O)c(O)c1
IC50 [2]: 9.2 µM | inhibition [1]: 100% | IC50 [3]: 2 µM | IC50 [4]: 151 µM | IC50 [5]: 240 µM

CCOC(=O)C1=C[C@@H](OC(CC)CC)[C@H](NC(C)=O)[C@@H](N)C1 [OSELTAMIVIR PHOSPHATE]
IC50 [2]: 0.8 µM

COc1cc2oc3cc(O)c(O)cc3c(=O)c2c(O)c1[C@@H]1O[C@H](CO)[C@@H](O)[C@H](O)[C@H]1O
inhibition [1]: 13.3%

O=C(O)c1cc(O)c(O)c(O)c1
inhibition [1]: inactive

O=C(O[C@@H]1C[C@](O)(C(=O)O)C[C@@H](O)[C@H]1O)c1cc(O)c(O)c(O)c1
inhibition [1]: 29.8%

O=C(O[C@@H]1O[C@H](CO)[C@@H](O)[C@H](O)[C@H]1O)c1cc(O)c(O)c(O)c1
inhibition [1]: 23.6%

O=C(OC[C@H]1O[C@@H](OC(=O)c2cc(O)c(O)c(O)c2)[C@H](OC(=O)c2cc(O)c(O)c(O)c2)[C@@H](OC(=O)c2cc(O)c(O)c(O)c2)[C@@H]1OC(=O)c1cc(O)c(O)c(O)c1)c1cc(O)c(O)c(O)c1 [PENTAGALLOYL GLUCOSE]
IC50 [2]: 11.9 µM | inhibition [1]: 100% | IC50 [3]: 1.1 µM | IC50 [4]: 92.4 µM | IC50 [5]: 356 µM

O=c1c2cc(O)c(O)cc2oc2c(-c3c(O)c([C@@H]4O[C@H](CO)[C@@H](O)[C@H](O)[C@H]4O)c(O)c4c(=O)c5cc(O)c(O)cc5oc34)c(O)c([C@@H]3O[C@H](CO)[C@@H](O)[C@H](O)[C@H]3O)c(O)c12
inhibition [1]: 46.1%

O=c1c2cc(O)c(O)cc2oc2cc(O)c([C@@H]3O[C@H](CO)[C@@H](O)[C@H](O)[C@H]3O)c(O)c12
inhibition [1]: 21.4%

COc1cc(O)c(C(=O)c2ccc(O)cc2)c(O[C@@H]2O[C@H](CO)[C@@H](O)[C@H](O)[C@H]2O)c1
inhibition [1]: inactive

COc1cc(O)c(C(=O)c2ccc(O)cc2)c(O)c1[C@@H]1O[C@H](CO)[C@@H](O)[C@H](O)[C@H]1O
inhibition [1]: 17.5%
